In publication PMC4574351, “Tubulin cofactors and Arl2 are cage-like chaperones that regulate the soluble αβ-tubulin pool for microtubule dynamics” (eLife, 2015):
Like-named read-outs stand apart in the source and are kept apart here.

Tests used:
Assay in all cases: malachite green phosphate release, Michaelis-Menten fit
Assay type in all cases: biochemical
[1] = target: T1, TBC-DEG:αβ-tubulin:TBCC-Cterm (TBCC-C) (Saccharomyces cerevisiae, UniProt P39110); conditions: 1 μM each TBC-DEG, buffer and temperature same, read-out: Km (GTP)
T1 construct: gene CIN4; as ternary complex but TBCC beta-helix domain only (residues 100-267, spectrin domain removed); with Protein CIN1; Protein PAC2; Tubulin-folding cofactor C; Tubulin alpha chain (Sus scrofa brain, isotype mixture); Tubulin beta chain (Sus scrofa brain, isotype mixture)
From the text: malachite green phosphate release, Michaelis-Menten fit on TBC-DEG:αβ-tubulin:TBCC-Cterm (TBCC-C)

[2] = target: T2, TBC-DEG:αβ-tubulin (Saccharomyces cerevisiae, UniProt P39110); conditions: 1 μM TBC-DEG, 1 μM αβ-tubulin; buffer and temperature same; GTPase site may be Arl2 or tubulin; read-out: Km (GTP)
T2 construct: gene CIN4; recombinant yeast TBC-DEG with equimolar double-cycled porcine brain tubulin dimer; tubulin may contribute to GTP turnover; with Protein CIN1; Protein PAC2; Tubulin alpha chain (Sus scrofa brain, isotype mixture); Tubulin beta chain (Sus scrofa brain, isotype mixture)
From the text: malachite green phosphate release, Michaelis-Menten fit on TBC-DEG:αβ-tubulin

[3] = target: T3, TBC-DEG:αβ-tubulin:TBCC ternary complex (Saccharomyces cerevisiae, UniProt P39110); conditions: 1 μM each TBC-DEG, buffer and temperature same, read-out: Km (GTP)
T3 construct: gene CIN4; recombinant yeast TBC-DEG and full-length TBCC with equimolar double-cycled porcine brain tubulin dimer; tubulin may contribute to GTP turnover; with Protein CIN1; Protein PAC2; Tubulin-folding cofactor C; Tubulin alpha chain (Sus scrofa brain, isotype mixture); Tubulin beta chain (Sus scrofa brain, isotype mixture)
From the text: (§1) malachite green phosphate release, Michaelis-Menten fit on TBC-DEG:αβ-tubulin:TBCC ternary complex

[4] = target: T4, TBC-DEG:αβ-tubulin:TBCC ternary complex (Saccharomyces cerevisiae, UniProt P39110, Q73L); conditions: 1 μM each TBC-DEG-Q73L, buffer and temperature same, text prints 387 μM, residual turnover ascribed to tubulin, read-out: Km (GTP)
T4 construct: gene CIN4; recombinant yeast TBC-DEG and full-length TBCC with equimolar double-cycled porcine brain tubulin dimer; tubulin may contribute to GTP turnover; with Protein CIN1; Protein PAC2; Tubulin-folding cofactor C; Tubulin alpha chain (Sus scrofa brain, isotype mixture); Tubulin beta chain (Sus scrofa brain, isotype mixture)
From the text: as §1

[5] = target: T5, TBC-DEG:TBCC (Saccharomyces cerevisiae, UniProt P39110); conditions: 1 μM TBC-DEG, 1 μM TBCC; buffer and temperature same; read-out: Km (GTP)
T5 construct: gene CIN4; TBC-DEG mixed with equimolar full-length TBCC (GAP), all recombinant from E. coli; with Protein CIN1; Protein PAC2; Tubulin-folding cofactor C
From the text: malachite green phosphate release, Michaelis-Menten fit on TBC-DEG:TBCC

[6] = target: T6, TBC-DEG (TBCD-TBCE-Arl2) (Saccharomyces cerevisiae, UniProt P39110); conditions: 1 μM TBC-DEG alone; 0-800 μM GTP; 50 mM HEPES, 100 mM KCl; 30 °C, 90 min
T6 construct: gene CIN4; full-length subunits co-expressed in E. coli (polycistronic), 6xHis N-terminal tag; 1:1:1 heterotrimer, ~205 kDa; with Protein CIN1; Protein PAC2
T6 sequence (P39110 1-191): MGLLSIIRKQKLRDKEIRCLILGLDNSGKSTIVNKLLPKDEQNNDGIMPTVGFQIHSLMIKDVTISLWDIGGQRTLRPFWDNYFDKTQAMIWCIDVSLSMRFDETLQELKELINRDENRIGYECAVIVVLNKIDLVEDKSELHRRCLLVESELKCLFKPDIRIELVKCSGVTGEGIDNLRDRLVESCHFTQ
T6 sequence (P40987 1-1014 partner): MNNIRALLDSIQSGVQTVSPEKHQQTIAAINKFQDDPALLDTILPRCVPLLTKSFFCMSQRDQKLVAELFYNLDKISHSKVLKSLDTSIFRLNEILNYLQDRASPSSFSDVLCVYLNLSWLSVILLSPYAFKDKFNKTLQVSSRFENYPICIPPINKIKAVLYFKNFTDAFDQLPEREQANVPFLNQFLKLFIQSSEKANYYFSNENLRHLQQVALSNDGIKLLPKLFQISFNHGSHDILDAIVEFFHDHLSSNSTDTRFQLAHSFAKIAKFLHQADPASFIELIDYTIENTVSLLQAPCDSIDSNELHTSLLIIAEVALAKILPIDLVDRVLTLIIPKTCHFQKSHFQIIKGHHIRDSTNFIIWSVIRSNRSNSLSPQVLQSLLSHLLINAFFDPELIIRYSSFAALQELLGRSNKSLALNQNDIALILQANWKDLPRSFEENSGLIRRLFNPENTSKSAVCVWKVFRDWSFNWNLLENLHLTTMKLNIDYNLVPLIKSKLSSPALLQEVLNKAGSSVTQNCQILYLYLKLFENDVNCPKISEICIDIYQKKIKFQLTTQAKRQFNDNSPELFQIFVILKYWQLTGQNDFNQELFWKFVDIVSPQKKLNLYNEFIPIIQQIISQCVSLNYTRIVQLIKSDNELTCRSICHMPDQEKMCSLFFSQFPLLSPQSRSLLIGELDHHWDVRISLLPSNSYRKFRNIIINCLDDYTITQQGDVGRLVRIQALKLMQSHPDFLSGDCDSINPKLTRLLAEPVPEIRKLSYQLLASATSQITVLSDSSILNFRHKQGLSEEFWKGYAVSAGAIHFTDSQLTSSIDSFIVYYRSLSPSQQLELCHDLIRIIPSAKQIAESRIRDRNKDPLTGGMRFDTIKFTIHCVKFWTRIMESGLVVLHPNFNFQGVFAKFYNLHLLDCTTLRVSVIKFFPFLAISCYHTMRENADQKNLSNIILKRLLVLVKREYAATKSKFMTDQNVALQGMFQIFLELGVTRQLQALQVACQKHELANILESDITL
T6 sequence (P39937 1-518 partner): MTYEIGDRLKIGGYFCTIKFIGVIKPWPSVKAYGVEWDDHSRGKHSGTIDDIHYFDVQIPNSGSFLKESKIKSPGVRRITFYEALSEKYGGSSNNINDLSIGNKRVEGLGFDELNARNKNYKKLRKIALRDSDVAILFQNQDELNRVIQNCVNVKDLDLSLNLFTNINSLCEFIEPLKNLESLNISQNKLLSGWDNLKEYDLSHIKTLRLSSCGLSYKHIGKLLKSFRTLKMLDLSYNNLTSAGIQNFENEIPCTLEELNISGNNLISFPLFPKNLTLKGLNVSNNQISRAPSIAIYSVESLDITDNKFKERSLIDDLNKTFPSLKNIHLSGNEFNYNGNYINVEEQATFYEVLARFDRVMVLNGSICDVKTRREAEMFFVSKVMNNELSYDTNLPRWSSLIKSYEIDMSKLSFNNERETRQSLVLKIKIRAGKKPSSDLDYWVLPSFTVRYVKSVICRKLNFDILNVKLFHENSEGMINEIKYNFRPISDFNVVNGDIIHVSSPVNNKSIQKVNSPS
From the text: malachite green phosphate release, Michaelis-Menten fit on TBC-DEG (TBCD-TBCE-Arl2)

T4 sequence (P39110 whole entry Q73L, one chain of several): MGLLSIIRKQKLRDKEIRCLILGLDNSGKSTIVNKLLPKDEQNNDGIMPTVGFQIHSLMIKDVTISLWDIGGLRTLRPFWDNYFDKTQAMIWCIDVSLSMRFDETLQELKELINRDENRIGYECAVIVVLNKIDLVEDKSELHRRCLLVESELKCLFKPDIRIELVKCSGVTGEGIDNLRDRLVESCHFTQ
T4 sequence (P46670 whole entry partner, one chain of several): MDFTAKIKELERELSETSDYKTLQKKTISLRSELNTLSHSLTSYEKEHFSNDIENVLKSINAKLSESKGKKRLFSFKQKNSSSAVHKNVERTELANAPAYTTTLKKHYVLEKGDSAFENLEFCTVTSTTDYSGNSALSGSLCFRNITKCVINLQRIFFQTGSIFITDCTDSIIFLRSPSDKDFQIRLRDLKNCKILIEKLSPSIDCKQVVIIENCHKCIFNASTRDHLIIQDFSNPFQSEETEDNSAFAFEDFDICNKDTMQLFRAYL
T4 sequence (P02550 whole entry partner, one chain of several): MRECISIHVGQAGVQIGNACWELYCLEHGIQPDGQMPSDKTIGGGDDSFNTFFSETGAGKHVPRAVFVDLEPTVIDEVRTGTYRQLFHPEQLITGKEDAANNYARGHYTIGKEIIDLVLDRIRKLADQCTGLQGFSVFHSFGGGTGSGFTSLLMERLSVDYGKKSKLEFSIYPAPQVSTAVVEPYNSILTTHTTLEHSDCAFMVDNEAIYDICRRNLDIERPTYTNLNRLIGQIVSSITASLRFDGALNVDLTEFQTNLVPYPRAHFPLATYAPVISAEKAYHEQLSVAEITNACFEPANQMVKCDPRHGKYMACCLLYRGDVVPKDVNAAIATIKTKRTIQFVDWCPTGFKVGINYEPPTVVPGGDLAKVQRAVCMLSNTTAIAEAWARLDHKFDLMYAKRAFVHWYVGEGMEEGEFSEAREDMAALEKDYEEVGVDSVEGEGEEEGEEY
T4 sequence (P02554 whole entry partner, one chain of several): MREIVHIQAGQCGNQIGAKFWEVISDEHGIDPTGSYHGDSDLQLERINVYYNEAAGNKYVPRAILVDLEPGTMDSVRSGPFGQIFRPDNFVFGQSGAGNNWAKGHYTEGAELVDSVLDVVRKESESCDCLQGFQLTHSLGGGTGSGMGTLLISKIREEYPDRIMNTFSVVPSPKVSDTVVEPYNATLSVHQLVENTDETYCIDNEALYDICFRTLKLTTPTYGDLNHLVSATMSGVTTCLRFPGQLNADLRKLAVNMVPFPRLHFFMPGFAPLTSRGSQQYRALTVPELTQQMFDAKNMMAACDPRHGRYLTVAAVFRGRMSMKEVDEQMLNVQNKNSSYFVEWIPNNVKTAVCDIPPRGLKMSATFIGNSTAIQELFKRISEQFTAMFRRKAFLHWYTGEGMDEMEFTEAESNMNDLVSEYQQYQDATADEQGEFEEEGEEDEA
T5 sequence (P46670 whole entry partner, one chain of several): as the sequence (P46670 whole entry partner, one chain of several) above
T1 sequence (P46670 100-267 partner, one chain of several): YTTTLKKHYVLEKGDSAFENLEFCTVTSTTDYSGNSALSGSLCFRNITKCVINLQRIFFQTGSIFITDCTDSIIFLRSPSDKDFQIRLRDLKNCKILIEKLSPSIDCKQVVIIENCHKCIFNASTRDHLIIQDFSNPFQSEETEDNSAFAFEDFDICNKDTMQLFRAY
T1 sequence (P02550 whole entry partner, one chain of several, the tested form may be a part): as the sequence (P02550 whole entry partner, one chain of several) above
T1 sequence (P02554 whole entry partner, one chain of several, the tested form may be a part): as the sequence (P02554 whole entry partner, one chain of several) above
T2 sequence (P02550 whole entry partner, one chain of several): as the sequence (P02550 whole entry partner, one chain of several) above
T2 sequence (P02554 whole entry partner, one chain of several): as the sequence (P02554 whole entry partner, one chain of several) above

- Km [1]: 56 ± 7 µM
- Km [2]: 69 ± 12 µM
- Km ([3]; TBCC-R186A, arginine finger mutant): 40 ± 10 µM
- Km ([3]; TBCC-Δ233-245, αβ-tubulin): 35 ± 8 µM
- Km ([3]; Arl2 with minor tubulin contribution): 99 ± 10 µM
- Km [4]: 371 ± 20 µM
- Km [5]: 94 ± 10 µM
- Km [6]: 400 ± 30 µM
Structure (SMILES): Nc1nc2c(ncn2[C@@H]2O[C@H](COP(=O)(O)OP(=O)(O)OP(=O)(O)O)[C@@H](O)[C@H]2O)c(=O)[nH]1 [GTP]
